The subject of assay [1] is HAP1 MTAP-deleted cell line. In words: SDMA in-cell western assay, HAP1 MTAP-deleted. Type of assay: cell-based. As to conditions: for IC50: Homo sapiens, HAP1, SDMA in-cell western, HAP1 MTAP-deleted, read-out: HAP1 MTAP deleted IC50; for MTAP intact/deleted ratio: IC50 ratio HAP1 MTAP-intact / HAP1 MTAP-deleted, SDMA in-cell western. Put shortly:
(§1)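 Readout: in-cell western detection of SDMA. Cells: HAP1 expressing endogenous MTAP and an MTAP-null HAP1 counterpart. Output: IC50.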

Assay [2] addresses T1, PRMT5 (Homo sapiens, UniProt O14744).
T1 construct: purchased Viva (custom protein)
In words: PRMT5 biochemical IC50 assay with MTA as cofactor. As to conditions: PRMT5, MTA as cofactor; read-out: MTA IC50.

In assay [3] the target is T1, PRMT5. In words: PRMT5 biochemical IC50 assay with SAM as cofactor. To be noted: PRMT5, SAM as cofactor; read-out: SAM IC50.
For assay [4], the system named is HAP1 MTAP-deleted cell line. In words: Viability assay, MTAP-deleted cell line. Type of assay: cell-based. To be noted: Homo sapiens, HAP1, viability assay, MTAP-deleted cell line; read-out: HAP1 MTAP deleted viability. The source says: Table 1 additionally indicates IC50 values in a viability assay for the MTAP-deleted cell line (column 10), indicating the effect of treatment with compound on cell survival.

Assay [5] deals with T1, PRMT5. In words: PRMT5 biochemical IC50 assay with no cofactor. To be noted: PRMT5, no cofactor; read-out: No Cofactor/rel IC50. An excerpt:
Table 1 indicates IC50 values (μM) against PRMT5 for exemplary compounds in the presence of SAM as cofactor, with no cofactor, and with MTA as cofactor, respectively (columns 4-6). […] Ki values can be calculated from the IC50 values as described in the Examples section. As detailed in the Examples section, for the assay performed in the presence of SAM, IC50=Ki×1.5 (Ki=IC50/1.5).

Assay [6] has as its system HAP1 MTAP-intact cell line. In words: SDMA in-cell western assay, HAP1 MTAP-intact. The class given is cell-based. To be noted: Homo sapiens, HAP1, SDMA in-cell western, HAP1 MTAP-intact; read-out: MTAP HAP1 intact IC50. Put shortly: as §1

T1 sequence (O14744 whole entry): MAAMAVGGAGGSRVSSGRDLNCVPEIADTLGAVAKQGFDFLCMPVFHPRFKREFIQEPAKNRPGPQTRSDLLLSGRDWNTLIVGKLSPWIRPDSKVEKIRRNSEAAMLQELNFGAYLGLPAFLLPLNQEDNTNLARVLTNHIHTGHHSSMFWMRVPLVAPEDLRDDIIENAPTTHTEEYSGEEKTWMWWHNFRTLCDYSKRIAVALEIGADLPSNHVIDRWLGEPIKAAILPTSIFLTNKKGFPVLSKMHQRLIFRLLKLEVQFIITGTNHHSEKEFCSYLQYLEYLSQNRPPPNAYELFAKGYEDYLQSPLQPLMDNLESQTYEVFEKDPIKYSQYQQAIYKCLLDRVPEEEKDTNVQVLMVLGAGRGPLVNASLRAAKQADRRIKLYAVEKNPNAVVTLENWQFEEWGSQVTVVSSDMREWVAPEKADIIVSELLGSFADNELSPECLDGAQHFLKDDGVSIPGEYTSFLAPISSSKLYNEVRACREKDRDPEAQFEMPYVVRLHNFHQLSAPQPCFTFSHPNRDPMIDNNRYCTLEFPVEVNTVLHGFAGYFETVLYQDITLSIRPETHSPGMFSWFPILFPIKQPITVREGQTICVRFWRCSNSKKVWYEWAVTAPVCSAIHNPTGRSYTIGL
T1 sequence (Q9BQA1 whole entry partner): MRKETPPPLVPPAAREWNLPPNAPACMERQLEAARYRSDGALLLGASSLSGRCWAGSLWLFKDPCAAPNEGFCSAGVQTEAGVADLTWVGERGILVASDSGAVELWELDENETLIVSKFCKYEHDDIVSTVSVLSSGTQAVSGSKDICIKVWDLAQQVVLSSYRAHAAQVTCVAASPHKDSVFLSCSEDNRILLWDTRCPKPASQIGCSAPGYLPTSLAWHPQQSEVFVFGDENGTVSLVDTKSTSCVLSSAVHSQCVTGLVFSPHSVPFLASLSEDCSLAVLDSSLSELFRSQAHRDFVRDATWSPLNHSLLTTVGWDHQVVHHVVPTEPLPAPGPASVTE

Take `NC(=O)c1cncc(NC(=O)C(=O)N2CC[C@@H]3CCCC[C@@H]3C2)c1` (racemic) [Compound 429, 5-(2-(octahydroisoquinolin-2(1B)-yl)-2-oxoacetamido)nicotinamide]: the IC50 in assay [1] is more than 1000 nM; in assay [2] it was 50 to 500 nM; in assay [3] it was 50 to 500 nM; in assay [4], more than 10000 nM; in assay [5] it was more than 500 nM; in assay [6] it was more than 1000 nM. The MTAP intact/deleted ratio result in assay [1] is given as “B (an IC50 ratio greater than or equal to 3 fold but lower than 10 fold)”.

`C[C@@H]1CC[C@@H](c2ccc(N[C@@H]3CCN(C)C3=O)cc2)N(C(=O)C(=O)Nc2cncc(C(N)=O)c2)C1` (racemic) [Compound 430, 5-[[2-[(2S,5R)-5-Methyl-2-[4-[[(3R)-1-methyl-2-oxo-pyrrolidin-3-yl]amino]phenyl]-1-piperidyl]-2-oxo-acetyl]amino]pyridine-3-carboxamide]: the IC50 in assay [1] was less than 100 nM; in assay [2], 50 to 500 nM; in assay [3], 50 to 500 nM; in assay [4] it was 1000 to 10000 nM; in assay [5], 50 to 500 nM; in assay [6], more than 1000 nM. In assay [1], the MTAP intact/deleted ratio result is listed as “A (an IC50 ratio greater than or equal to 10 fold)”.

Consider `C[C@@H]1CCN(C(=O)C(=O)Nc2cncc(C(N)=O)c2)[C@H](c2ccccc2)C1` (racemic) [Compound 442, 5-(2-(4-methyl-2-phenylpiperidin-1-yl)-2-oxoacetamido)nicotinamide], for which the IC50 in assay [1] is 100 to 1000 nM; in assay [2], 50 to 500 nM; in assay [3], 50 to 500 nM; in assay [4], 1000 to 10000 nM; in assay [5], 50 to 500 nM; in assay [6] it was more than 1000 nM. In addition, the MTAP intact/deleted ratio entry in assay [1] is on record as “A (an IC50 ratio greater than or equal to 10 fold)”.

As to `C[C@@H]1CN(C(=O)C(=O)Nc2cncc(C(N)=O)c2)[C@@H](c2ccccc2)C[C@H]1O` (racemic) [Compound 459, rac-5-[[2-[(2R,4R,5R)-4-hydroxy-5-methyl-2-phenyl-1-piperidyl]-2-oxo-acetyl]amino]pyridine-3-carboxamide], the IC50 in assay [1] was 100 to 1000 nM; in assay [2], 50 to 500 nM; in assay [3], 50 to 500 nM; in assay [4] it was more than 10000 nM; in assay [5] it was 50 to 500 nM; in assay [6], more than 1000 nM. Besides, the MTAP intact/deleted ratio result in assay [1] is “A (an IC50 ratio greater than or equal to 10 fold)”.

As to `C[C@@H]1CN(C(=O)C(=O)Nc2cncc(C(N)=O)c2)[C@@H](c2ccccc2)C[C@@H]1O` (racemic) [Compound 470, rac-5-[[2-[(2R,4S,5R)-4-hydroxy-5-methyl-2-phenyl-1-piperidyl]-2-oxo-acetyl]amino]pyridine-3-carboxamide], the IC50 in assay [1] is 100 to 1000 nM; in assay [2], 50 to 500 nM; in assay [3], 50 to 500 nM; in assay [4], more than 10000 nM; in assay [5] it was 50 to 500 nM; in assay [6] it was more than 1000 nM. In assay [1], the MTAP intact/deleted ratio result is on record as “A (an IC50 ratio greater than or equal to 10 fold)”.

As for `C[C@@H]1CC[C@@H](c2ccccc2)N(C(=O)C(=O)Nc2cnc(O)c(C(N)=O)c2)C1` (racemic) [Compound 494, rac-2-hydroxy-5-(2-((2R,5S)-5-methyl-2-phenylpiperidin-1-yl)-2-oxoacetamido)nicotinamide], the IC50 is more than 1000 nM in assay [1]; 50 to 500 nM in assay [2]; more than 500 nM in assay [3]; more than 10000 nM in assay [4]; 50 to 500 nM in assay [5]; more than 1000 nM in assay [6]. The MTAP intact/deleted ratio entry in assay [1] is on record as “C (an IC50 ratio of less than 3 fold)”.

For the compound `CC[C@@H]1CCN(C(=O)C(=O)Nc2cncc(C(N)=O)c2)[C@H](c2ccccc2)C1` (racemic) [Compound 497, rac-5-[[2-[(2S,4R)-4-ethyl-2-phenyl-1-piperidyl]-2-oxo-acetyl]amino]pyridine-3-carboxamide], the IC50 in assay [1] was 100 to 1000 nM; in assay [2] it was less than 50 nM; in assay [3] it was 50 to 500 nM; in assay [4] it was 1000 to 10000 nM; in assay [5], 50 to 500 nM; in assay [6], more than 1000 nM. For the same compound, the MTAP intact/deleted ratio entry in assay [1] is “A (an IC50 ratio greater than or equal to 10 fold)”.

`CNc1ccc([C@@H]2CC[C@@H](C)CN2C(=O)C(=O)Nc2cnc(N)c(C)c2)cc1` (racemic) [Compound 498, N-(6-amino-5-methyl-3-pyridyl)-2-[(2S,5R)-5-methyl-2-[4-(methylamino)phenyl]-1-piperidyl]-2-oxo-acetamide]: the IC50 in assay [1] is less than 100 nM; in assay [2] it was 50 to 500 nM; in assay [3] it was 50 to 500 nM; in assay [4] it was less than 1000 nM; in assay [5] it was 50 to 500 nM; in assay [6], more than 1000 nM. For the same compound, the MTAP intact/deleted ratio entry in assay [1] is “A (an IC50 ratio greater than or equal to 10 fold)”.

As to `Cc1n[nH]c2ccc([C@@H]3CC[C@@H](C)CN3C(=O)C(=O)Nc3cncc(C(N)=O)c3)cc12` (racemic) [Compound 500, rac-5-[[2-[(2S,5R)-5-Methyl-2-(3-methyl-1H-indazol-5-yl)-1-piperidyl]-2-oxo-acetyl]amino]pyridine-3-carboxamide], the IC50 is 100 to 1000 nM in assay [1]; 50 to 500 nM in assay [2]; 50 to 500 nM in assay [3]; 1000 to 10000 nM in assay [4]; 50 to 500 nM in assay [5]; more than 1000 nM in assay [6]. Further, the MTAP intact/deleted ratio entry in assay [1] is on record as “A (an IC50 ratio greater than or equal to 10 fold)”.

On to `COc1ncc(NC(=O)C(=O)N2C[C@@H](C)CC[C@@H]2c2csc3ccccc23)cc1C(N)=O` (racemic) [Compound 501, 5-[[2-[2-(benzothiophen-3-yl)-5-methyl-1-piperidyl]-2-oxo-acetyl]amino]-2-methoxy-pyridine-3-carboxamide], for which the IC50 is more than 1000 nM in assay [1]; 50 to 500 nM in assay [2]; more than 500 nM in assay [3]; more than 10000 nM in assay [4]; more than 500 nM in assay [5]; more than 1000 nM in assay [6]. For the same compound, the MTAP intact/deleted ratio result in assay [1] was “B (an IC50 ratio greater than or equal to 3 fold but lower than 10 fold)”.

Take `C[C@@H]1CCC[C@H]2CN(C(=O)C(=O)Nc3cncc(C(N)=O)c3)CC[C@H]21` (racemic) [Compound 515, 5-(2-(5-methyloctahydroisoquinolin-2(1H)-yl)-2-oxoacetamido)nicotinamide]: the IC50 in assay [1] is more than 1000 nM; in assay [2], 50 to 500 nM; in assay [3], 50 to 500 nM; in assay [4], more than 10000 nM; in assay [5] it was more than 500 nM; in assay [6] it was more than 1000 nM. Besides, the MTAP intact/deleted ratio result in assay [1] is recorded as “B (an IC50 ratio greater than or equal to 3 fold but lower than 10 fold)”.

Turning to `C[C@@H]1CC[C@@H]([C@@H]2CCC(O)C2)N(C(=O)C(=O)Nc2cncc(C(N)=O)c2)C1` (mixture of isomers) [Compound 517, 5-[[2-[(2S,5R)-2-(3-Hydroxycyclopentyl)-5-methyl-1-piperidyl]-2-oxo-acetyl]amino]pyridine-3-carboxamide], the IC50 in assay [1] was more than 1000 nM; in assay [2] it was 50 to 500 nM; in assay [3], more than 500 nM; in assay [4], more than 10000 nM; in assay [5], more than 500 nM; in assay [6], more than 1000 nM. In assay [1], the MTAP intact/deleted ratio entry was “C (an IC50 ratio of less than 3 fold)”.

As for `C[C@@H]1CC[C@@](C)(c2ccccc2)N(C(=O)C(=O)Nc2cncc(C(N)=O)c2)C1` (racemic) [Compound 521, 5-(2-(2,5-dimethyl-2-phenylpiperidin-1-yl)-2-oxoacetamido)nicotinamide], the IC50 in assay [1] is more than 1000 nM; in assay [2], 50 to 500 nM; in assay [3] it was more than 500 nM; in assay [4], more than 10000 nM; in assay [5], more than 500 nM; in assay [6], more than 1000 nM. In addition, the MTAP intact/deleted ratio entry in assay [1] is “B (an IC50 ratio greater than or equal to 3 fold but lower than 10 fold)”.

For the compound `C[C@@H]1CC[C@@H](c2ccc(-c3ccn[nH]3)cc2)N(C(=O)C(=O)Nc2cncc(C(N)=O)c2)C1` (racemic) [Compound 524, 5-[[2-[(2S,5R)-5-methyl-2-[4-(1H-pyrazol-5-yl)phenyl]-1-piperidyl]-2-oxo-acetyl]amino]pyridine-3-carboxamide], the IC50 was 100 to 1000 nM in assay [1]; 50 to 500 nM in assay [2]; 50 to 500 nM in assay [3]; 1000 to 10000 nM in assay [4]; 50 to 500 nM in assay [5]; more than 1000 nM in assay [6]. In assay [1], the MTAP intact/deleted ratio entry is “A (an IC50 ratio greater than or equal to 10 fold)”.

Source of the values: US11999727B2 (Tango Therapeutics, Inc., priority 2020, dated 2024).
